# Data taken from US8507562B2, “Synthesis of (1)-beta-elemene, (-)-beta-elemenal, (-)-beta-elemenol, (-)-beta-elemene fluoride and their analogues, intermediates, and composition and uses thereof” (HYWE Pharmaceuticals, Inc., priority 2004, dated 2013).
# Read-outs that look alike come from different tables or passages of the source.
# How the values were obtained:
# [1] = system: A-172 brain tumor; assay: MTT survival assay; type: cell-based, human; conditions: A172, 72 h
# Protocol: (§2) The MTT assay is a commonly used method in evaluation of cell survival, based on the ability of viable cells to convert MTT, a soluble tetrazolium salt [3-(4,5-dimethylthuazole-2-yl)-2,5 diphenyl tetrazolium bromide], into an insoluble formazan precipitate, which is quantitated by spectrophotometry following solubilization in dimethyl sulfoxide (DMSO).
# (§3) The cells were then solubilized in 125 μl of DMSO and absorbance readings were taken using a 96-well Opsys MRI Microplate Reader (ThermoLabsystems; Chantilly, Va.). The amount of MTT dye reduction was calculated based on the difference between absorbance at 570 nm and at 630 nm. Cell viability in treated cells was expressed as the amount of dye reduction relative to that of untreated control cells. The wells which contained only medium and 10 μl of MTT were used as blanks for the plate reader. Three sets of experiments were performed in 8-12 wells for each treatment.
# (§4) The cells were then solubilized in 125 μl of DMSO and absorbance readings were taken using a 96-well Opsys MRI Microplate Reader (ThermoLabsystems; Chantilly, Va.). The amount of MTT dye reduction was calculated based on the difference between absorbance at 570 nm and at 630 nm. Cell viability in treated cells was expressed as the amount of dye reduction relative to that of untreated control cells. The wells which contained only medium and 10 μI of MTT were used as blanks for the plate reader. Three sets of experiments were performed in 8-12 wells for each treatment.
# [2] = system: STTG1 brain tumor; assay: MTT survival assay; type: cell-based, human
# Protocol: as §2, §3
# [3] = system: H-460 lung cancer; assay: MTT survival assay; type: cell-based, human; conditions: 2 × 10^4 cells/ml
# Protocol: as §2, §3
# (§5) In brief, carcinoma cells treated with test articles alone, in 96-well tissue culture dishes were incubated with MTT (2 μg/ml) for 4 h. The cells were then solubilized in 125 μl of DMSO and absorbance readings were taken using a 96-well Opsys MRI Microplate Reader (ThermoLabsystems; Chantilly, Va.). The amount of MTT dye reduction was calculated based on the difference between absorbance at 570 nm and at 630 nm. Cell viability in treated cells was expressed as the amount of dye reduction relative to that of untreated control cells. The wells that contained only medium and 10 μl of MTT were used as blanks for the plate reader.
# as §4
# [4] = system: human glioma cells; assay: MTT assay, elemene analogs; type: cell-based
# Protocol: as §2, §3
# [5] = system: human glioma G422 (xenograph in brain); assay: Tumor xenographed in mice brain, survival; type: in vivo
# Protocol: (§1) Mice model with tumor xenographed in mice brain: Glioma cell line G-422 or SHG44 (log phase) were diluted to 2×10^7/ml in cell culture hood (no bacteria environment). Each mouse was injected with 0.05 ml of tumor cell in its brain. […] The survival time of these mice was recorded in the next 30 days. The life extension was calculated using the following formula: Life Extension Rate=[( […])/Average survival days of control group[×100 Results: […]
# [6] = system: human glioma SHG44 (xenograph in brain); assay: Tumor xenographed in mice brain, survival; type: in vivo, nude mice; conditions: for Survival time as % of control (T/C): compared to control
# Protocol: as §1
# [7] = system: human glioma SHG-44G (xenograph under skin); assay: Xenograph under skin, injection directly into tumor; type: in vivo, nude mice; conditions: for Tumor Weight X ± SD: in g (unit assumed)
# Text: The mice were killed after 3 weeks.
# Nude mice grew on the cengliu rack.
# [8] = Chronic toxicity study, 28 days i.v.; type: in vivo; conditions: Beagle dogs
# [9] = Chronic toxicity study, 28 days i.p.; type: in vivo; conditions: rats
# Protocol: In the Rat study, three groups of rats (n=20 per group, half male and half female) were given (i.p.) 7.5, 15, or 30 mg/kg/d of β-Elemene for 28 days consecutively. […] Ascites were not completely absorbed during 4 weeks without drug intake. […] The accumulated toxicity of β-Elemene (via i.p.) was not severe, except irritation at local injection site. The safe dose was 7.5 mg/kg/d.
# [10] = system: Colon Cancer Cells HCT-15
# Protocol: (§6) Cells were maintained at 37° C. in a humidified atmosphere including 5% CO2. […] Drugs were dissolved in 100% DMSO and then diluted in medium for experiments.
# [11] = system: human lung cancer A549
# [12] = system: human breast cancer ao10/17
# [13] = system: human colon cancer HCT-8
# [14] = system: human breast cancer Bcap-37
# [15] = system: BEL-7402 cells; conditions: BEL-7402 cells after 6 weeks of induction with Elemene at 48.9 ug/ml; cited from earlier work
# [16] = 3H labeled Elemene, intravenous or oral, radioactivity detected in brain; cited from earlier work
# [17] = system: A549 lung cancer; assay: MTT survival assay; conditions: 2 × 10^4 cells/ml
# Protocol: as §2, §5
# [18] = system: Colon Cancer Cells HCT-15; assay: MTS cell viability assay; conditions: combinations with Elemene 160 μg/ml, n = 8
# Protocol: as §6
# [19] = system: Colon Cancer Cells Colo 205; assay: MTS cell viability assay; conditions: Colo 205, drug alone
# Protocol: as §6
# [20] = 25 mg/kg/time iv × 10 bid, listed as β-Elemene
# [21] = 12.5 mg/kg/time iv × 10 bid, listed as β-Elemene
# [22] = 50 mg/kg/time iv × 10 bid, listed as β-Elemene
substance,measurement,setting,value
(−)-Beta-elemene,IC50,[1],80 µg/mL
same,IC50,"[2]; STTG1, 24 h",112 µg/mL
same,IC50,"[2]; STTG1, 48 h",115 µg/mL
same,IC50,"[2]; STTG1, 72 h",112 µg/mL
same,IC50,"[3]; H460, 24 h",89.5 µg/mL
same,IC50,"[3]; H460, 48 h",70.6 µg/mL
same,IC50,"[3]; H460, 72 h",68.2 µg/mL
same,IC50 in human glioma cells,[4]; 24 hr,95.52 µg/mL
same,IC50 in human glioma cells,[4]; 48 hr,88.48 µg/mL
same,IC50 in human glioma cells,[4]; 72 hr,93.34 µg/mL
same,Average Life Span (day) X± SD,[5]; 7.5 mg/kg/time iv × 10 qd,12.3 ± 3.4 days
same,Average Life Span (day) X± SD,[5]; 15 mg/kg/time iv × 10 qd,13.1 ± 2.7 days
same,Average Life Span (day) X± SD,[5]; 30 mg/kg/time iv × 10 qd,14.1 ± 2.3 days
same,Average Life Span (day) X± SD,[5]; 60 mg/kg/time iv × 10 qd,14.9 ± 2.1 days
same,Average Life Span (day) X± SD,[6]; 7.5 mg/kg/time iv × 10 qd,20.2 ± 1.7 days
same,Survival time as % of control (T/C),[6]; 7.5 mg/kg/time iv × 10 qd,132.84%
same,Survival time as % of control (T/C),"[6]; 7.5 mg/kg/time iv × 10 qd, listed as β-Elemene",128.72%
same,Average Life Span (day) X± SD,[6]; 15 mg/kg/time iv × 10 qd,21.8 ± 1.9 days
same,Survival time as % of control (T/C),[6]; 15 mg/kg/time iv × 10 qd,140.46%
same,Survival time as % of control (T/C),"[6]; 15 mg/kg/time iv × 10 qd, listed as β-Elemene",139.31%
same,Average Life Span (day) X± SD,[6]; 30 mg/kg/time iv × 10 qd,23.3 ± 3.6 days
same,Survival time as % of control (T/C),[6]; 30 mg/kg/time iv × 10 qd,150.37%
same,Survival time as % of control (T/C),"[6]; 30 mg/kg/time iv × 10 qd, listed as β-Elemene",148.69%
same,Average Life Span (day) X± SD,[6]; 60 mg/kg/time iv × 10 qd,25.2 ± 3.1 days
same,Survival time as % of control (T/C),[6]; 60 mg/kg/time iv × 10 qd,159.81%
same,Survival time as % of control (T/C),"[6]; 60 mg/kg/time iv × 10 qd, listed as β-Elemene",160.36%
same,Inhibition Rate %,[7]; 15 mg/kg it × 10 qd,37.83%
same,Tumor Weight X ± SD,[7]; 15 mg/kg it × 10 qd,1.15 ± 0.33
same,Inhibition Rate %,[7]; 30 mg/kg it × 10 qd,51.35%
same,Tumor Weight X ± SD,[7]; 30 mg/kg it × 10 qd,0.90 ± 0.17
same,Inhibition Rate %,[7]; 60 mg/kg it × 10 qd,63.24%
same,Tumor Weight X ± SD,[7]; 60 mg/kg it × 10 qd,0.68 ± 0.19
same,"side effects, high dose group","[8]; 75 mg/kg/d i.v., 28 days","nausea, vomiting, appetite loss, weight loss, saliva dripping and other side effects"
same,"pathology changes, low and medium dose groups","[8]; 15 and 30 mg/kg/d i.v., 28 days",No significant pathology changes related to drug
same,non-toxic dose,"[8]; i.v., 28 days consecutively",15 mg/kg
same,"changes, low dose group","[9]; 7.5 mg/kg/d i.p., 28 days",No significant changes
same,"mortality, high dose group","[9]; 30 mg/kg/d i.p., 28 days, n=20",Six rats in high dose group died
same,"ascites, medium and high dose groups","[9]; 15 and 30 mg/kg/d i.p., 28 days",Ascites were developed in all animals
same,safe dose,"[9]; i.p., 28 days consecutively",7.5 mg/kg/day
same,IC50,[10],194 ± 19.3 µg/mL
same,Inhibition Rate %,[11]; 12.5 mg/kg/time iv × 10 bid,31.28%
same,Tumor Weight (g) X ± SD,[11]; 12.5 mg/kg/time iv × 10 bid,1.34 ± 0.10 g
same,Tumor Weight (g) X ± SD,[11]; 25 mg/kg/time iv × 10 bid,1.17 ± 0.09 g
same,Inhibition Rate %,[11]; [20],40.0%
same,Inhibition Rate %,[11]; 50 mg/kg/time iv × 10 bid,43.08%
same,Tumor Weight (g) X ± SD,[11]; 50 mg/kg/time iv × 10 bid,1.11 ± 0.08 g
same,Inhibition Rate %,[12]; 12.5 mg/kg/time iv × 10 bid,28.28%
same,Tumor Weight (g) X ± SD,[12]; 12.5 mg/kg/time iv × 10 bid,0.827 ± 0.06 g
same,Inhibition Rate %,[12]; [21],31.08%
same,Inhibition Rate %,[12]; 25 mg/kg/time iv × 10 bid,35.03%
same,Tumor Weight (g) X ± SD,[12]; 25 mg/kg/time iv × 10 bid,0.765 ± 0.1 g
same,Inhibition Rate %,[12]; [20],36.25%
same,Inhibition Rate %,[12]; 50 mg/kg/time iv × 10 bid,44.14%
same,Tumor Weight (g) X ± SD,[12]; 50 mg/kg/time iv × 10 bid,0.643 ± 0.1 g
same,Inhibition Rate %,[12]; [22],46.42%
same,Inhibition Rate %,[13]; 12.5 mg/kg/time iv × 10 bid,38.32%
same,Tumor Weight (g) X ± SD,[13]; 12.5 mg/kg/time iv × 10 bid,0.928 ± 0.07 g
same,Inhibition Rate %,[13]; [21],35.10%
same,Inhibition Rate %,[13]; 25 mg/kg/time iv × 10 bid,49.49%
same,Tumor Weight (g) X ± SD,[13]; 25 mg/kg/time iv × 10 bid,0.772 ± 0.05 g
same,Inhibition Rate %,[13]; [20],46.01%
same,Inhibition Rate %,[13]; 50 mg/kg/time iv × 10 bid,57.15%
same,Tumor Weight (g) X ± SD,[13]; 50 mg/kg/time iv × 10 bid,0.655 ± 0.08 g
same,Inhibition Rate %,[13]; [22],54.20%
same,Inhibition Rate %,[14]; 12.5 mg/kg/time iv × 10 bid,36.09%
same,Tumor Weight (g) X ± SD,[14]; 12.5 mg/kg/time iv × 10 bid,0.870 ± 0.04 g
same,Inhibition Rate %,[14]; [21],33.08%
same,Inhibition Rate %,[14]; 25 mg/kg/time iv × 10 bid,45.31%
same,Tumor Weight (g) X ± SD,[14]; 25 mg/kg/time iv × 10 bid,0.738 ± 0.07 g
same,Inhibition Rate %,[14]; [20],43.23%
same,Inhibition Rate %,[14]; 50 mg/kg/time iv × 10 bid,51.33%
same,Tumor Weight (g) X ± SD,[14]; 50 mg/kg/time iv × 10 bid,0.675 ± 0.10 g
same,Inhibition Rate %,[14]; [22],48.08%
same,expression of MDR1 mRNA or P-glycoprotein (P-gp),[15],did not express MDR1 mRNA or P-glycoprotein (P-gp)
same,blood brain barrier (BBB) passage,[16],passes the blood brain barrier
same,IC50,"[17]; A549, 24 h",62.0 µg/mL
same,IC50,"[17]; A549, 48 h",55.6 µg/mL
same,IC50,"[17]; A549, 72 h",56.4 µg/mL
same,IC50,"[18]; HCT-15, 4 hr/24 hr × 2",199 ± 11.5 µg/mL
same,IC50,"[18]; HCT-15, 4 hr/24 hr × 3",165 ± 23.0 µg/mL
same,IC50,"[18]; HCT-15, 4 hr/24 hr",214 ± 15.8 µg/mL
same,IC50,"[18]; HCT-15, 4 hr",229 ± 26.9 µg/mL
same,IC50,"[18]; HCT-15, 8 hr",215 ± 34.1 µg/mL
same,IC50,"[18]; HCT-15, 12 hr",202 ± 21.8 µg/mL
same,IC50,"[18]; HCT-15, 48 hr",197 ± 12.7 µg/mL
same,IC50,"[18]; HCT-15, 72 hr",197 ± 22.3 µg/mL
same,IC50,"[19]; Time 4 hr, n = 8",144 ± 10.4 µg/mL
same,IC50,"[19]; Time 4 hr/24 hr × 2, n = 8",82.3 ± 7.11 µg/mL
same,IC50,"[19]; Time 4 hr/24 hr × 3, n = 8",56.7 ± 12.6 µg/mL
same,IC50,"[19]; Time 4 hr/24 hr, n = 8",96.3 ± 11.1 µg/mL
same,IC50,"[19]; Time 8 hr, n = 8",116 ± 4.00 µg/mL
same,IC50,"[19]; Time 12 hr, n = 8",110 ± 9.51 µg/mL
same,IC50,"[19]; Time 24 hr, n = 8",83.0 ± 13.7 µg/mL
same,IC50,"[19]; Time 48 hr, n = 8",75.3 ± 5.04 µg/mL
same,IC50,"[19]; Time 72 hr, n = 8",77.7 ± 14.2 µg/mL
